# In patent US9701677B2, “Fused pyrimidine compounds” (Gilead Sciences, Inc., priority 2014, dated 2017):
# Read-outs that look alike come from different tables or passages of the source.
# Experiments:
# Type in all cases: cell-based
# [1] = system: HIV-1 reverse transcriptase mutant Y181C; assay: High throughput cytopathic effect assay in MT-4 cells, Y181C mutant; settings: for EC50: Human immunodeficiency virus 1, MT4, 120 h, read-out: MT4 EC50 (nM) against Y181C; for FC against mutant Y181C: fold change of EC50, Y181C versus w.t. assay 2
# Description: (§1) Compounds were screened in a miniaturized, high throughput cytopathic effect assay for activity against HIV-1 HBX2 (wild type) and HIV-1 reverse transcriptase mutants K103N and Y181C. In Tables 1 and 2 below, “w.t.” refers to results of the tested compounds run with the wildtype 1 and “w.t. assay 2” refers results of the tested compounds run with the wildtype on the same day as the testing of the compounds with the mutants. Thus, “w.t. assay 2” was run under the same conditions as the testing of the compounds with the mutants and provides a direct comparison with the results from the testing with the mutants.
# (§2) Ten-point serial dilutions of compounds with half-log step size were generated in DMSO. AZT (5 μM) was used as the positive control and DMSO as the negative control. The Echo acoustic dispenser was used to deliver 200 nL of serially diluted compound into sterile 384 well tissue culture assay plates. Two million MT-4 cells were incubated with each of the 3 viruses at MOI of 0.0005 in separate 1 mL infection tubes for 1 hour at 37° C. The cells were diluted in cell culture medium (RPMI+10% FBS) to 50,000 cells/mL. The infected cells were added to 384 well assay plates containing serially dilute compounds. Assay plates were incubated for 5 days in a humidified incubator set at 37° C. and 5% CO2. To measure the cytopathic effect of HIV, 40 μL Cell TiterGlo was added to each well and the resulting luminescence signal is read with the Envision plate reader (Perkin Elmer). Data were normalized to positive and negative controls in each plate and expressed as % CPE Protection. […]
# [2] = system: HIV-1 reverse transcriptase mutant K103N; assay: High throughput cytopathic effect assay in MT-4 cells, K103N mutant; settings: for EC50: Human immunodeficiency virus 1, MT4, 120 h, read-out: MT4 EC50 (nM) against K103N; for FC against mutant K103N: fold change of EC50, K103N versus w.t. assay 2
# Description: as §1, §2
# HIV-1 HBX2 (wild type) = assay: High throughput cytopathic effect assay in MT-4 cells, wild type HIV-1
# Description: as §1, §2
# hERG channels = molecular target: T1, hERG channels (Homo sapiens, UniProt Q12809); assay: hERG assay, whole cell recordings in CHO cell line stably expressing hERG channels; settings: CHO cells expressing hERG, tail current, Table 3
# T1 construct: host or cells: CHO cell line stably expressing hERG
# T1 sequence (Q12809 whole entry): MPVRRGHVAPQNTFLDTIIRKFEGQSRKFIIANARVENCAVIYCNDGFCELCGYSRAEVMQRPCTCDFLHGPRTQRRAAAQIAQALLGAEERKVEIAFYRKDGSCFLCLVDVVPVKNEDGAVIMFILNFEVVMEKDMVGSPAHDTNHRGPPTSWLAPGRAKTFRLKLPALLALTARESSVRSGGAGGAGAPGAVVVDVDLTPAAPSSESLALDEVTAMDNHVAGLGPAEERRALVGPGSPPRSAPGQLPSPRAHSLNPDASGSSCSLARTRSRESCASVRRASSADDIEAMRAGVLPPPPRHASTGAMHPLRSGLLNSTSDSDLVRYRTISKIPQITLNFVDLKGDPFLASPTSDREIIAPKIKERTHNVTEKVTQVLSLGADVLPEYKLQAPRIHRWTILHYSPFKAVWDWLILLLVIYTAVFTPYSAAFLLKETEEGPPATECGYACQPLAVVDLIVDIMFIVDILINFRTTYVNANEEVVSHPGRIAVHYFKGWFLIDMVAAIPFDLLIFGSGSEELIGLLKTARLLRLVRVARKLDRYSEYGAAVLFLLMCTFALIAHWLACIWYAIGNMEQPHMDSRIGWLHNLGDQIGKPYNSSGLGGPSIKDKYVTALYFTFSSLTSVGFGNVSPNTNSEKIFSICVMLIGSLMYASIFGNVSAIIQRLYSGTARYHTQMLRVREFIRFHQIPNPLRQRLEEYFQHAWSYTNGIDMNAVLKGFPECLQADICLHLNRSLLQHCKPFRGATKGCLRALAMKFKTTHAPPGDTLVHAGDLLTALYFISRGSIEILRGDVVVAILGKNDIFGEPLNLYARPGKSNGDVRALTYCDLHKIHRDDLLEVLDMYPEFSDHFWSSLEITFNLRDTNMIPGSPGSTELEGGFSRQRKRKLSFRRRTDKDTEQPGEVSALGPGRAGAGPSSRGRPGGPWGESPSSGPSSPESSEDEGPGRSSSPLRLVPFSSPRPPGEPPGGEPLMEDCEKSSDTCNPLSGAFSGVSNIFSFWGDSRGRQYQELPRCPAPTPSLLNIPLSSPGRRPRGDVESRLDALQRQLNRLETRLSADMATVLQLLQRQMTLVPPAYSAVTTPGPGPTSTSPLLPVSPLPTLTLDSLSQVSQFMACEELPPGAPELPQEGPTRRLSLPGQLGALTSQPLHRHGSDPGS
# Procedure: Cells were cultured in DMEM/F12 containing 10% FBS, 1% penicillin/streptomycin and 500 μg/ml G418. Before testing, cells were harvested using Accumax (Innovative Cell Technologies).
# Cells were voltage clamped at a holding potential of −80 mV. The hERG current was then activated by a depolarizing step to −50 mV for 300 ms. This first step at −50 mV was used as a baseline for measuring peak amplitude of the tail current. Next, a voltage step to +20 mV was applied for 5 s to activate the channels. Finally, a step back to −50 mV for 5 s removed activation and the deactivating tail current was recorded.
# Solutions were mixed by sonication for 20 min, followed by vigorous vortexing. Prior to testing, compounds were diluted to test concentrations in glass vials using External Solution. Dilutions were prepared no longer than 20 min prior to use.
# External solution containing 0.1% DMSO (vehicle) was applied to the cells to establish a baseline. […] Test article solutions were added to cells in 4 separate additions. Cells were kept in test solution until effect of the test article reached steady state, to a maximum of 12 min. Next, 1 μM cisapride (positive control) was added. Finally, washout with External Solution was performed until the recovery current reached steady state.
# [3] = Human immunodeficiency virus 1, MT4, 120 h, MT-4 cells, HIV-1 wild type, 5 days, CPE protection (Cell TiterGlo), read-out: MT4 EC50 (nM) against w.t.
# [4] = Human immunodeficiency virus 1, MT4, read-out: MT4 EC50 (nM) against w.t. assay 2
compound,measurement,setting,value
"Cc1cc(/C=C/C#N)cc(C)c1-c1nccc2c(N)nc(Nc3ccc(C#N)cc3)nc12 [Compound 1, (E)-4-((4-Amino-8-(4-(2-cyanovinyl)-2,6-dimethylphenyl)pyrido[3,4-d]pyrimidin-2-yl)amino)benzonitrile]",EC50,[1],5.5 nM
same,FC against mutant Y181C,[1],4.0
same,EC50,[2],2.3 nM
same,FC against mutant K103N,[2],1.7
same,EC50,HIV-1 HBX2 (wild type); [3],2.1 nM
same,EC50,HIV-1 HBX2 (wild type); [4],1.4 nM
"Cc1cc(/C=C/C#N)cc(C)c1-c1cncc2c(N)nc(Nc3ccc(C#N)cc3)nc12 [Compound 2, (E)-4-((4-Amino-8-(4-(2-cyanovinyl)-2,6-dimethylphenyl)pyrido[4,3-d]pyrimidin-2-yl)amino)benzonitrile]",EC50,[1],40.4 nM
same,FC against mutant Y181C,[1],3.2
same,EC50,[2],14.3 nM
same,FC against mutant K103N,[2],1.1
same,EC50,HIV-1 HBX2 (wild type); [3],6.1 nM
same,EC50,HIV-1 HBX2 (wild type); [4],12.6 nM
same,IC50,hERG channels,1700 nM
"Cc1cc(/C=C/C#N)cc(C)c1-c1ccnc2c(N)nc(Nc3ccc(C#N)cc3)nc12 [Compound 3, (E)-4-((4-amino-8-(4-(2-cyanovinyl)-2,6-dimethylphenyl)pyrido[3,2-d]pyrimidin-2-yl)amino)benzonitrile]",EC50,HIV-1 HBX2 (wild type); [3],4.6 nM
